Experimental data taken from patent publication US20230142338A1, “THIOPHENYL DERIVATIVES USEFUL FOR MODULATING NUCLEIC ACID SPLICING” (REMIX THERAPEUTICS INC., priority 2020, published 2023).
Structures can show the parent of a compound that is named as a salt.

Key:
Type in all cases: cell-based
[1] = system: HTT CJ mRNA; experiment: Gene panel canonical junction qPCR assay: HTT; conditions: Table 3, concentration having 50% response in CJ decrease, read-out: HTT IC50 (decrease in CJ mRNA levels)
Protocol: (§1) Compounds described herein were used to modulate RNA transcript abundance in cells. The expression of a target mRNA was measured by detecting the formation of an exon-exon junction in the canonical transcript (CJ). A compound mediated exon-inclusion event was detected by observing an increase in formation of a new junction with an alternative exon (AJ). Real-time qPCR assays were used to detect these splicing switches and interrogate the potency of various compounds towards different target genes. A high-throughput real time quantitative PCR (RT-qPCR) assay was developed to measure these two isoforms of the mRNA (CJ and AJ) for an exemplary gene, HTT, together with a control housekeeping gene, GAPDH or GUSB or PPIA, used for normalization. Briefly, the A673 or K562 cell line was treated with various compounds described herein (e.g., compounds of Formula (I)). After treatment, the levels of the HTT mRNA targets were determined from each sample of cell lysate by cDNA synthesis followed by qPCR.
(§2) The A673 cell line was cultured in DMEM with 10% FBS. Cells were diluted with full growth media and plated in a 96-well plate (15,000 cells in 100 ul media per well). The plate was incubated at 37° C. with 5% CO2 for 24 hours to allow cells to adhere. An 11-point 3-fold serial dilution of the compounds was made in DMSO then diluted in media in an intermediate plate. Compounds were transferred from the intermediate plate to the cell plate with the top dose at a final concentration of 10 uM in the well. Final DMSO concentration was kept at or below 0.25%. The cell plate was returned to the incubator at 37° C. with 5% CO2 for an additional 24 hours.
(§3) The K562 cell line was cultured in IMDM with 10% FBS. For K562, cells were diluted with full growth media and plated in either a 96-well plate (50,000 cells in 50 uL media per well) or a 384-well plate (8,000-40,000 cells in 45 uL media per well). An 11-point 3-fold serial dilution of the compounds were made in DMSO then diluted in media in an intermediate plate. Compound was transferred from the intermediate plate to the cell plate with the top dose at a final concentration of 10 uM in the well. Final DMSO concentration was kept at or below 0.25%. Final volume was 100 uL for 96-well plate and 50 uL for 384-well plate. The cell plate was then placed in an incubator at 37° C. with 5% CO2 for 24 hours.
(§4) The cells were then gently washed with 50 uL-100 uL cold PBS before proceeding to addition of lysis buffer. 30 uL-50 uL of room temperature lysis buffer with DNAse I (and optionally RNAsin) was added to each well. Cells were shaken/mixed thoroughly at room temperature for 5-10 minutes for lysis to take place and then 3 uL-5 uL of room temperature stop solution was added and wells were shaken/mixed again. After 2-5 minutes, the cell lysate plate was transferred to ice for RT-qPCR reaction setup. The lysates could also be frozen at −80° C. for later use.
(§5) In some cases, a direct lysis buffer was used. An appropriate volume of 3× lysis buffer (10 mM Tris, 150 mM NaCl, 1.5%-2.5% Igepal and 0.1-1 U/uL RNAsin, pH 7.4) was directly added to either K562 or A673 cells in media and mixed by pipetting 3 times. The plates were then incubated at room temperature with shaking/rocking for 20-50 minutes to allow for lysis to take place. After this time, the cell lysate plate was transferred to ice to set up for the RT-qPCR reactions. The lysates could also be frozen at −80° C. for later use.
(§6) To set up 10 uL RT-qPCR reactions, cell lysates were transferred to 384-well qPCR plates containing the master mix according to the table below. The plates were sealed, gently vortexed, and spun down before the run. The volumes were adjusted accordingly in some instances where the reaction was carried in 20 uL. The table below summarizes the components of the RT-qPCR reactions:
(§7) The RT-qPCR reaction was performed using a QuantStudio (ThermoFisher) under the following fast cycling conditions. […]

[2] = system: Target C CJ mRNA; experiment: Gene panel canonical junction qPCR assay: Target C; conditions: Table 3, concentration having 50% response in CJ decrease, read-out: Target C IC50 (decrease in CJ mRNA levels)
Protocol: as §1, §2, §3, §4, §5, §6, §7

[3] = system: HTT AJ mRNA; experiment: Splicing assay (RT-qPCR): increase in HTT alternative junction (AJ) mRNA; conditions: A673 or K562 cells, 24 hours treatment; concentration having 50% response in AJ mRNA increase
Protocol: as §1, §2, §3, §4, §5, §6, §7

[4] = system: HTT CJ mRNA; experiment: Splicing assay (RT-qPCR): decrease in HTT canonical junction (CJ) mRNA; conditions: A673 or K562 cells, 24 hours treatment; concentration having 50% response in CJ mRNA decrease
Protocol: as §1, §2, §3, §4, §5, §6, §7

[5] = system: SMN2 CJ mRNA; experiment: Gene panel canonical junction qPCR assay: SMN2; conditions: Table 3, concentration having 50% response in CJ decrease, read-out: SMN2 IC50 (decrease in CJ mRNA levels)
Protocol: as §1, §2, §3, §4, §5, §6, §7

SMILES: Cc1cn2cc(NC(=O)c3sc(C4CCN(C)CC4)cc3F)cc(F)c2n1 [Compound 145, 3-fluoro-N-[8-fluoro-2-methylimidazo [1,2-a]pyridin-6-yl]-5-(1-methylpiperidin-4-yl)thiophene-2-carboxamide]
- IC50 [1]: 1000 to 10000 nM
- IC50 [2]: 1000 to 10000 nM
- AC50 [3]: 1000 to 10000 nM
- AC50 [4]: 1000 to 10000 nM
- IC50 [5]: 100 to 1000 nM

SMILES: CCN1CCC(c2cc(F)c(C(=O)Nc3cc(F)c4nc(C)cn4c3)s2)CC1 [Compound 146, 5-(1-ethylpiperidin-4-yl)-3-fluoro-N-[8-fluoro-2-methylimidazo[1,2-a]pyridin-6-yl]thiophene-2-carboxamide]
- IC50 [1]: 1000 to 10000 nM
- IC50 [2]: < 100 nM
- AC50 [3]: 1000 to 10000 nM
- AC50 [4]: 1000 to 10000 nM
- IC50 [5]: 100 to 1000 nM

SMILES: Cc1cn2cc(NC(=O)c3sc(C4C[C@@H](C)N[C@@H](C)C4)cc3F)cc(F)c2n1 (stereo partly drawn) [Compound 147, 5-[(2R,6S)-2,6-dimethylpiperidin-4-yl]-3-fluoro-N-[8-fluoro-2-methylimidazo[1,2-a]pyridin-6-yl]thiophene-2-carboxamide]
- IC50 [1]: 100 to 1000 nM
- IC50 [2]: 1000 to 10000 nM
- AC50 [3]: 1000 to 10000 nM
- AC50 [4]: 100 to 1000 nM
- IC50 [5]: < 100 nM

SMILES: Cc1cn2cc(NC(=O)c3sc(N(C)C4CC(C)(C)NC(C)(C)C4)cc3F)cc(F)c2n1 [Compound 149, 3-fluoro-N-[8-fluoro-2-methylimidazo[1,2-a]pyridin-6-yl]-5-[methyl(2,2,6,6-tetramethylpiperidin-4-yl)amino]thiophene-2-carboxamide]
- IC50 [1]: > 10 nM
- IC50 [2]: > 10 nM
- AC50 [3]: > 10000 nM
- AC50 [4]: > 10000 nM
- IC50 [5]: 100 to 1000 nM

SMILES: Cc1cn2cc(NC(=O)c3sc(N(C)C4CCN(C)CC4)cc3F)cc(F)c2n1 [Compound 150, 3-fluoro-N-[8-fluoro-2-methylimidazo[1,2-a]pyridin-6-yl]-5-[methyl(1-methylpiperidin-4-yl)amino]thiophene-2-carboxamide]
- IC50 [1]: 1000 to 10000 nM
- IC50 [2]: 1000 to 10000 nM
- AC50 [3]: > 10000 nM
- AC50 [4]: 1000 to 10000 nM
- IC50 [5]: 1000 to 10000 nM

SMILES: CC1CN(c2cc(F)c(C(=O)Nc3ccc4cn(C)nc4c3)s2)CCN1 (centres unmarked) [Compound 162, 3-fluoro-N-(2-methylindazol-6-yl)-5-(3-methylpiperazin-1-yl)thiophene-2-carboxamide]
- IC50 [1]: > 10 nM
- IC50 [2]: > 10 nM
- AC50 [3]: > 10000 nM
- AC50 [4]: > 10000 nM
- IC50 [5]: > 10 nM

SMILES: CC1CN(c2cc(F)c(C(=O)Nc3cc(F)c4cn(C)nc4c3)s2)CCN1 (centres unmarked) [Compound 163, 3-fluoro-N-(4-fluoro-2-methylindazol-6-yl)-5-(3-methylpiperazin-1-yl)thiophene-2-carboxamide]
- IC50 [1]: > 10 nM
- IC50 [2]: < 100 nM
- AC50 [3]: > 10000 nM
- AC50 [4]: > 10000 nM
- IC50 [5]: > 10 nM

SMILES: Cc1nc2c(F)cc(NC(=O)c3sc(N4CCNC(C)C4)cc3F)cc2o1 (centres unmarked) [Compound 164, 3-fluoro-N-(4-fluoro-2-methyl-1,3-benzoxazol-6-yl)-5-(3-methylpiperazin-1-yl)thiophene-2-carboxamide]
- IC50 [1]: 1000 to 10000 nM
- IC50 [2]: 100 to 1000 nM
- AC50 [3]: 1000 to 10000 nM
- AC50 [4]: 1000 to 10000 nM
- IC50 [5]: 100 to 1000 nM

SMILES: Cc1nc2c(F)cc(NC(=O)c3sc(N4CCNC(C)C4)cc3F)cc2s1 (centres unmarked) [Compound 165, 3-fluoro-N-(4-fluoro-2-methyl-1,3-benzothiazol-6-yl)-5-(3-methylpiperazin-1-yl)thiophene-2-carboxamide]
- IC50 [1]: > 10 nM
- IC50 [2]: 100 to 1000 nM
- AC50 [3]: > 10000 nM
- AC50 [4]: > 10000 nM
- IC50 [5]: 1000 to 10000 nM

SMILES: Cc1cn2cc(NC(=O)c3sc(N4CCNC(C)C4)cc3F)c(C)cc2n1 (centres unmarked) [Compound 166, N-[2,7-dimethylimidazo[1,2-a]pyridin-6-yl]-3-fluoro-5-(3-methylpiperazin-1-yl)thiophene-2-carboxamide]
- IC50 [1]: > 10 nM
- IC50 [2]: > 10 nM
- AC50 [3]: > 10000 nM
- AC50 [4]: > 10000 nM
- IC50 [5]: 1000 to 10000 nM

SMILES: Cc1cn2cc(NC(=O)c3sc(N4CCNC(C)C4)cc3F)ncc2n1 (centres unmarked) [Compound 167, 3-fluoro-N-[2-methylimidazo[1,2-a]pyrazin-6-yl]-5-(3-methylpiperazin-1-yl)thiophene-2-carboxamide]
- IC50 [1]: > 10 nM
- IC50 [2]: > 10 nM
- AC50 [3]: > 10000 nM
- AC50 [4]: > 10000 nM
- IC50 [5]: 100 to 1000 nM

SMILES: Cc1cn2nc(NC(=O)c3sc(N4CCNC(C)C4)cc3F)nc2c(C)n1 (centres unmarked) [Compound 169, hydrochloride]
- IC50 [1]: > 10 nM
- IC50 [2]: > 10 nM
- AC50 [3]: > 10000 nM
- AC50 [4]: > 10000 nM
- IC50 [5]: > 10 nM

SMILES: Cc1cn2cc(NC(=O)c3sc(N4CCNC(C)C4)cc3F)cc(C)c2n1 (centres unmarked) [Compound 172, N-[2,8-dimethylimidazo[1,2-a]pyridin-6-yl]-3-fluoro-5-(3-methylpiperazin-1-yl)thiophene-2-carboxamide]
- IC50 [1]: > 10 nM
- IC50 [2]: > 10 nM
- AC50 [3]: > 10000 nM
- AC50 [4]: > 10000 nM
- IC50 [5]: 1000 to 10000 nM

SMILES: COc1cc(C2CCNCC2)sc1C(=O)Nc1cc(F)c2nc(C)cn2c1 [Compound 173, N-[8-fluoro-2-methylimidazo [1,2-a]pyridin-6-yl]-3-methoxy-5-(piperidin-4-yl)thiophene-2-carboxamide]
- IC50 [1]: > 10 nM
- IC50 [2]: > 10 nM
- AC50 [3]: > 10000 nM
- AC50 [4]: > 10000 nM
- IC50 [5]: > 10 nM

SMILES: Cc1cn2cc(NC(=O)c3ccc(C4CCNCC4)s3)cc(F)c2n1 [Compound 174, N-[8-fluoro-2-methylimidazo[1,2-a]pyridin-6-yl]-5-(piperidin-4-yl) thiophene-2-carboxamide]
- IC50 [1]: 100 to 1000 nM
- IC50 [2]: 1000 to 10000 nM
- AC50 [3]: 1000 to 10000 nM
- AC50 [4]: 1000 to 10000 nM
- IC50 [5]: 100 to 1000 nM

SMILES: Cc1cn2cc(NC(=O)c3sc(C4CCNCC4)cc3F)c(C)cc2n1 [Compound 178, N-[2,7-dimethylimidazo[1,2-a]pyridin-6-yl]-3-fluoro-5-(piperidin-4-yl)thiophene-2-carboxamide]
- IC50 [1]: 1000 to 10000 nM
- IC50 [2]: > 10 nM
- AC50 [3]: 1000 to 10000 nM
- AC50 [4]: 1000 to 10000 nM
- IC50 [5]: 100 to 1000 nM
